The test system of data set [1] is phosphotyrosine STAT3 (p-STAT3). Briefly: Western blot of p-STAT3 in TNBC cells. It counts as cell-based, human. Here is the method: Disruption of the IL6/STAT3 signaling pathway can induce cell cycle arrest and apoptosis, which may contribute to the tumor cell death observed in our study following Angoline treatment. Thus, WB analysis was performed to verify our hypothesis. […] These changes were also observed in tumor-bearing mice treated with Angoline (Fig. 3G). Thus, Angoline may also killing the TNBC cells by inhibiting the IL6/STAT3 signaling pathway.
TNBC cells were inoculated in 10-cm plates with 50–60% confluence and incubated for 24 hours. Then, after cleaning the cells with PBS three times, the total proteins of cells were harvested by adding the RIPA lysis buffer and 1% Phenylmethanesulfonyl Fluoride (PMSF) into the plates and scraping off the lysed cells. The total proteins were calculated by the BCA protein estimation assay and were isolated by 10% SDS‒PAGE. The protein was transferred onto the PVDF membrane and then blocked with 5% skim milk powder for 2 hours. The protein bands were probed with corresponding antibodies and incubated at 4 °C overnight. Then, the secondary antibodies were added and incubated 1 h at room temperature. Finally, the membranes were detected by the enhanced chemiluminescence detection system.
(In general: In western blotting, separated proteins are transferred to a membrane and probed.)

The nature of data set [2]: Pharmacokinetic study, single intravenous injection. The note with it: Sprague-Dawley, rat, in vivo. Also on record: species or system Sprague-Dawley (SD) rats. How it is done: A pharmacokinetic (PK) study was performed to assess whether PMD could improve Angoline's systemic circulation and extend its half-life. Following a single intravenous injection of various formulations into Sprague-Dawley (SD) rats, blood samples were collected at predetermined time points and analyzed using HPLC. As illustrated in Fig. S19A and summarized in Table 1, the plasma concentration-time curves and PK parameters are presented. […] Furthermore, the data obtained from the area under the concentration-time curve (AUC) further confirmed the enhanced PK properties. Thus, the biomimetic nanodrug delivery system (PMD) confers Angoline with enhanced PK properties, attributed to its high stability and sustained drug release kinetics.

For a further data set, the target named is T1, MORC2 protein (Homo sapiens, UniProt Q9Y6X9).
T1 construct: 6xHis; made in house; host or cells: Escherichia coli BL21
T1 sequence (Q9Y6X9 1-1032): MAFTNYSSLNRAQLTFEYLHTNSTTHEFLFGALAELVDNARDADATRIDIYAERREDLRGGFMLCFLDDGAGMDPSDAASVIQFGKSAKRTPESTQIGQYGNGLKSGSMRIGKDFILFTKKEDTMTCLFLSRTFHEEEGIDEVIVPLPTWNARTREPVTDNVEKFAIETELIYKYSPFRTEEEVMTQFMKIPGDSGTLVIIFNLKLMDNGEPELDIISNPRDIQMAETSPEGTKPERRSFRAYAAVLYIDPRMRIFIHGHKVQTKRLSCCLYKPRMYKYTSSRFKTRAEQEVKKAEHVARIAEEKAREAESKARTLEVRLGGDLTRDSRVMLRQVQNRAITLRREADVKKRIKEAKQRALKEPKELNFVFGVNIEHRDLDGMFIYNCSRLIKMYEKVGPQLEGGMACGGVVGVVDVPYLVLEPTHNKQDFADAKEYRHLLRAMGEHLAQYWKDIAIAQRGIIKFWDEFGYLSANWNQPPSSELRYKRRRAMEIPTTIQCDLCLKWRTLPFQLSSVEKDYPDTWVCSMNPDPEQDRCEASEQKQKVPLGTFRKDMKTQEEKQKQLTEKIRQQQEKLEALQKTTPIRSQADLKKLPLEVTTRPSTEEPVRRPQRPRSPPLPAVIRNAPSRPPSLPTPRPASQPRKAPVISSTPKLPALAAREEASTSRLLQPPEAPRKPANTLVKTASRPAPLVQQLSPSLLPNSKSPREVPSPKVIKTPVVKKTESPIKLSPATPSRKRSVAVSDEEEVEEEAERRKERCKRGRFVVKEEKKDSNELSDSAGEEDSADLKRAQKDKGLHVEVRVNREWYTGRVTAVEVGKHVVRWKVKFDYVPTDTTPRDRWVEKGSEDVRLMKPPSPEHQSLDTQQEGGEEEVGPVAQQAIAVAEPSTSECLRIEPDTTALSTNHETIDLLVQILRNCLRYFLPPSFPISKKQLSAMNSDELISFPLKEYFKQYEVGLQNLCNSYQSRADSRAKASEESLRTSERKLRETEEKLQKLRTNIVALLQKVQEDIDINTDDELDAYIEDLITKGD
The data set can be described thus: SPR molecular interaction, MORC2 protein (WT). It counts as binding. Here is the method:
Topscience biological small molecule compound library was used to virtually screen out the potential small molecules by computer molecular docking. […] Then, a series of experiments were conducted to evaluate the binding ability between small molecule compounds and MORC2 protein. First, the optimal conditions for purification of MORC2 protein were investigated by univariate optimization method. Protein induction experiments were conducted under varying concentrations of IPTG (0 mM, 0.1 mM, 0.2 mM, 0.5 mM, 0.8 mM, 1 mM), temperature gradients (16 °C, 22 °C, 29 °C, 37 °C), and induction time (3 h, 6 h, 8 h, 10 h, 12 h). Finally, at 0.1 mM IPTG concentration, especially at 22 °C for 8 h, MORC2 protein expression reached the optimal level, which was verified by Coomassie blue staining (Figs. S7A–C). We cleared the other proteins by Binding/Wash Buffer 3 times and eluted the MORC2 protein with imidazole at 40 mM concentration to extract the high purity MORC2 protein (Fig. S7D). MORC2 protein with high purity was obtained according to the above conditions and verified by Coomassie blue staining (Fig. S7E). Then, surface plasmon resonance molecular interaction experiment was performed to detect the binding ability between small molecule compounds and MORC2 protein. […] Also, the binding strength between MORC2 and Angoline was dose-dependent on the concentration of Angoline (Fig. 2C). […]

Usually AUC(0-inf) stands for total exposure, with the tail of the curve extrapolated. Higher therefore signals high exposure. By AUC(0-t) is commonly meant exposure summed from dosing to a finite time, without extrapolation to infinity. In general, Cmax refers to the maximum level reached in the sampled fluid or tissue. Usually MRT stands for the average time that molecules of a dose stay in the body. In general, clearance refers to a measure of how efficiently the substance is removed, as volume per time. A high value points to a high capacity for elimination. By half-life is commonly meant the time needed for the level to fall by half in the phase considered. Usually Kd stands for the equilibrium constant for the complex coming apart. The low end stands for a tighter complex, the high end for a looser complex.

As for `COc1ccc2c(c1OC)C(OC)N(C)c1c-2ccc2cc3c(cc12)OCO3` (stereo not drawn) [Angoline], the “level of p-STAT3” value in data set [1] is “significantly reduced”. For the same molecule, in data set [2], the C0 was found to be 3670 ± 280 ng/mL. Besides, in data set [2] (SD rats, single i.v.), the AUC(0-inf) worked out at 15400 ± 190 ng·h/mL, the AUC(0-t) was 13200 ± 320 ng·h/mL, the Cmax was 3410 ± 150 ng/mL and the MRT was determined as 6.08 ± 0.18 h. In data set [2] (SD rats, single i.v.), this molecule had a clearance of 2.29 mL/min and a half-life of 4.15 ± 0.06 h. On MORC2 protein, this molecule had a Kd of 23.3 nM.

For the origin of these results see paper PMC11791359, “A select inhibitor of MORC2 encapsulated by chimeric membranecoated DNA nanocage target alleviation TNBC progression” (Materials Today Bio, 2025).
